Laboratory results published in article PMC8327781 (Journal of medicinal chemistry, 2021).
Where two headings read alike, the source gives them in different places.

Target: JAK2 KD (Homo sapiens, UniProt O60674)
Experiment: Recombinant JAK2 KD protein levels in transfected Expi293F cells
Type: cell-based

Sequence of JAK2 KD (O60674 840-1132): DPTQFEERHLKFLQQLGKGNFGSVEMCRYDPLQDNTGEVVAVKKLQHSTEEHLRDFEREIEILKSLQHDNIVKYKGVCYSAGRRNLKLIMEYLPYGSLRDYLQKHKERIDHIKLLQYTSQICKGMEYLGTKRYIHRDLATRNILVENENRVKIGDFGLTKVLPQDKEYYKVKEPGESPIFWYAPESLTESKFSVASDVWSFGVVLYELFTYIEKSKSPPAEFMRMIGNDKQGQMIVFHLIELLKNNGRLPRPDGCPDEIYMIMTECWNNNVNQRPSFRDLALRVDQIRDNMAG

SMILES | JAK2 KD expression increase over that of ruxolitinib alone | JAK2 KD expression increase over that of ruxolitinib alone (HDAC inhibitor added alongside 1 μM ruxolitinib, 2 mM and 4 mM)
CCCC(=O)O [butyric acid] | four-fold | –
CCCC(CCC)C(=O)O [valproic acid] | – | four-fold
